Assays:
Type in all cases: in vivo
STELLARIA MEDIA = experiment: Compound (A) with triasulfuron, weed plots; settings: 10 g per hectare; 30 DAA; No. 3.1
Experimental: In these tests, various weeds were treated with triasulfuron alone at a rate equivalent to 26 g per hectare, Compound (A) alone at a rate equivalent to 10 g per hectare, and to a mixture of triasulfuron and Compound (A) at rates equivalent to the sum of these. The compositions were formulated as an emulsifyable concentrate (EC).
(§1) The results in the table under each application are the percentage of the plants that were killed.

CYPERUS SP. = experiment: Compound (A) with glyphosate, weed plots
Source text: (§2) The compositions were formulated as an emulsifyable concentrate (EC).
as §1

CYNODON DACTYLON = experiment: Compound (A) with glyphosate, weed plots; settings: 82 DAA, No. 2.1
Source text: as §2, §1

HORDEUM PUSILLUM = experiment: Compound (A) with glyphosate, weed plots; settings: 13 DAA, No. 2.6
Source text: as §2, §1

CYPERUS ROTUNDUS [1] = experiment: Compound (A) with glyphosate, weed plots; settings: 2 DAA, No. 2.5
Source text: as §2, §1

DIGITARIA SANGUINALIS = experiment: Compound (A) with glyphosate, weed plots; settings: 52 DAA, No. 2.2
Source text: as §2, §1

CONYZA SP. = experiment: Compound (A) with paraquat, weed plots; settings: 5 DAA
Experimental: (§3) In these tests, various weeds were treated with paraquat alone at rates equivalent to 700 g per hectare and 840 g per hectare, compound (A) alone at rates equivalent to 10 g per hectare and 20 g per hectare, and with a mixture of paraquat and compound (A) at rates equivalent to the sum of these. The compositions were formulated as an emulsifyable concentrate (EC).
(§4) The results in the table under each application are the percentage of the weeds plants that were killed.

SONCHUS ASPER = experiment: Compound (A) with paraquat, weed plots; settings: 32 DAA, No. 1.10
Experimental: as §3, §4

LAMIUM PURPUREUM = experiment: Compound (A) with paraquat, weed plots; settings: 2 DAA, No. 1.5
Experimental: as §3, §4

SETARIA SP. = experiment: Compound (A) with paraquat, weed plots; settings: 27 DAA, No. 1.2
Experimental: as §3, §4

CYPERUS ROTUNDUS [2] = experiment: Compound (A) with paraquat, weed plots; settings: 56 DAA, No. 1.11
Experimental: as §3, §4

LOLIUM RIGIDUM = experiment: Compound (A) with paraquat, weed plots; settings: 41 DAA, No. 1.4
Experimental: as §3, §4

SETARIA VIRIDIS = experiment: Compound (A) with paraquat, weed plots; settings: 43 DAA, No. 1.3
Experimental: as §3, §4

E[…]-GALLI = experiment: Compound (A) with paraquat, weed plots; settings: 51 DAA, No. 1.8
Experimental: as §3, §4

DIGITARIA CILIARIS = experiment: Compound (A) with paraquat, weed plots; settings: 20 g/ha; 51 DAA; No. 1.7
Experimental: as §3, §4

VERONICA PERSICA = experiment: Compound (A) with paraquat, weed plots; settings: 69 DAA, No. 1.6
Experimental: as §3, §4

POLYGONUM PENSYLVANICUM = experiment: Compound (A) with S-metolachlor, weed plots; settings: 56 DAA, Trial 4.14
Experimental: (§5) In these tests, various weeds were treated with S-metolachlor (SMOC) alone at an application rate equivalent to 1420 g per hectare, Compound (A) alone at rates equivalent to 20 g per hectare and […] and with mixtures of S-metolachlor and the Compound (A) at rates equivalent to the sum of these. The compositions were formulated as an emulsifyable concentrate (EC).
as §1

XANTHIUM STRUMARIUM = experiment: Compound (A) with S-metolachlor, weed plots
Experimental: as §5, §1

COMMELINA SP. = experiment: Compound (A) with nicosulfuron, weed plots
Source text: In these tests, […] and Compound (A) at rates equivalent to the sum of these. The compositions were formulated as an emulsifyable concentrate (EC).
as §1

Ipomoea = experiment: Compound (A) with primisulfuron, weed plots; settings: 44 DAA, Trial 3.21
Experimental: In these tests, various weeds were treated with primisulfuron alone at a rate equivalent to 35 g per hectare, […] and Compound (A) at rates equivalent to the sum of these. The compositions were formulated as an emulsifiable concentrate (EC).
(§6) The results in the tables under each application are the percentage of the plants that were killed.

Brachiaria = experiment: Compound (A) with prosulfuron, weed plots; settings: 13 DAA, No. 3.27
Experimental: In these tests, various weeds were treated with prosulfinuron alone at a rate equivalent to 35 g per hectare, […] and Compound (A) at rates equivalent to the sum of these. The compositions were formulated as an emulsifiable concentrate (EC).
as §6

SMILES: CCOC(=O)COc1ncccc1Oc1cc(-n2c(=O)cc(C(F)(F)F)n(C)c2=O)c(F)cc1Cl [Compound (A)]
- percentage of the plants that were killed (STELLARIA MEDIA): 63%
- percentage of the plants that were killed (CYPERUS SP.; 10 g/ha, 1 DAA, No. 2.3): 0%
- percentage of the plants that were killed (CYPERUS SP.; 10 g/ha, 52 DAA, No. 2.4): 0%
- percentage of the plants that were killed (CYPERUS SP.; 20 g/ha, 1 DAA, No. 2.3): 0%
- percentage of the plants that were killed (CYPERUS SP.; 20 g/ha, 52 DAA, No. 2.4): 0%
- percentage of the plants that were killed (CYNODON DACTYLON; 10 g/ha): 0%
- percentage of the plants that were killed (CYNODON DACTYLON; 20 g/ha): 0%
- percentage of the plants that were killed (HORDEUM PUSILLUM; 10 g/ha): 60%
- percentage of the plants that were killed (HORDEUM PUSILLUM; 20 g/ha): 70%
- percentage of the plants that were killed (CYPERUS ROTUNDUS [1]; 10 g/ha): 40%
- percentage of the plants that were killed (CYPERUS ROTUNDUS [1]; 20 g/ha): 75%
- percentage of the plants that were killed (DIGITARIA SANGUINALIS; 10 g/ha): 0%
- percentage of the plants that were killed (DIGITARIA SANGUINALIS; 20 g/ha): 0%
- percentage of the weeds plants that were killed (CONYZA SP.; 10 g/ha, No. 1.1): 37%
- percentage of the weeds plants that were killed (CONYZA SP.; 10 g/ha, No. 1.9): 37%
- percentage of the weeds plants that were killed (CONYZA SP.; 20 g/ha, No. 1.1): 40%
- percentage of the weeds plants that were killed (CONYZA SP.; 20 g/ha, No. 1.9): 40%
- percentage of the weeds plants that were killed (SONCHUS ASPER; 10 g/ha): 60%
- percentage of the weeds plants that were killed (SONCHUS ASPER; 20 g/ha): 55%
- percentage of the weeds plants that were killed (LAMIUM PURPUREUM; 10 g/ha): 30%
- percentage of the weeds plants that were killed (LAMIUM PURPUREUM; 20 g/ha): 33%
- percentage of the weeds plants that were killed (SETARIA SP.; 10 g/ha): 0%
- percentage of the weeds plants that were killed (SETARIA SP.; 20 g/ha): 25%
- percentage of the weeds plants that were killed (CYPERUS ROTUNDUS [2]; 10 g/ha): 0%
- percentage of the weeds plants that were killed (CYPERUS ROTUNDUS [2]; 20 g/ha): 0%
- percentage of the weeds plants that were killed (LOLIUM RIGIDUM; 10 g/ha): 27%
- percentage of the weeds plants that were killed (LOLIUM RIGIDUM; 20 g/ha): 47%
- percentage of the weeds plants that were killed (SETARIA VIRIDIS; 10 g/ha): 0%
- percentage of the weeds plants that were killed (SETARIA VIRIDIS; 20 g/ha): 23%
- percentage of the weeds plants that were killed (E[…]-GALLI; 10 g/ha): 0%
- percentage of the weeds plants that were killed (E[…]-GALLI; 20 g/ha): 0%
- percentage of the weeds plants that were killed (DIGITARIA CILIARIS): 0%
- percentage of the weeds plants that were killed (VERONICA PERSICA; 10 g/ha): 25%
- percentage of the weeds plants that were killed (VERONICA PERSICA; 20 g/ha): 100%
- percentage of the plants that were killed (POLYGONUM PENSYLVANICUM; 20 g/ha): 0%
- percentage of the plants that were killed (POLYGONUM PENSYLVANICUM; 40 g/ha): 13%
- percentage of the plants that were killed (XANTHIUM STRUMARIUM; 20 g/ha, 26 DAA, Trial 4.17): 25%
- percentage of the plants that were killed (XANTHIUM STRUMARIUM; 20 g/ha, 42 DAA, Trial 4.18): 23%
- percentage of the plants that were killed (XANTHIUM STRUMARIUM; 40 g/ha, 26 DAA, Trial 4.17): 73%
- percentage of the plants that were killed (XANTHIUM STRUMARIUM; 40 g/ha, 42 DAA, Trial 4.18): 68%
- percentage of the plants that were killed (COMMELINA SP.; 5 g/ha, 10 DAA, No. 3.18): 30%
- percentage of the plants that were killed (COMMELINA SP.; 5 g/ha, 17 DAA, No. 3.19): 20%
- percentage of the plants that were killed (COMMELINA SP.; 10 g/ha, 10 DAA, No. 3.18): 50%
- percentage of the plants that were killed (COMMELINA SP.; 10 g/ha, 17 DAA, No. 3.19): 30%
- percentage of the plants that were killed (COMMELINA SP.; 20 g/ha, 10 DAA, No. 3.18): 58%
- percentage of the plants that were killed (COMMELINA SP.; 20 g/ha, 17 DAA, No. 3.19): 50%
- percentage of the plants that were killed (Ipomoea; 1.25 g/ha): 80%
- percentage of the plants that were killed (Ipomoea; 2.5 g/ha): 100%
- percentage of the plants that were killed (Ipomoea; 5 g/ha): 100%
- percentage of the plants that were killed (Brachiaria; 1.25 g/ha): 50%
- percentage of the plants that were killed (Brachiaria; 2.5 g/ha): 60%
- percentage of the plants that were killed (Brachiaria; 5 g/ha): 98%

— patent US20090233796A1, “HERBICIDAL COMPOSITION” (SYNGENTA CROP PROTECTION, INC., priority 2004, published 2009)
